From patent US9334246B2, “Substituted triazines for malaria treatment and chemoprophylaxis” (The United States of America, as represented by the …, priority 2013, dated 2016)

Experiments:
Assay type in all cases: cell-based, Plasmodium falciparum
[1] = tested on: P. falciparum D6; experiment: Malaria SYBR Green Fluorescence Assay, D6 strain
[2] = tested on: P. falciparum C235; experiment: Malaria SYBR Green Fluorescence Assay, C235 strain
[3] = tested on: P. falciparum W2; experiment: Malaria SYBR Green Fluorescence Assay, W2 strain

Row | Structure (SMILES) | D6 (SYBR Green Assay IC50) [1] [µg/mL] | C235 (SYBR Green Assay IC50) [2] [µg/mL] | W2 (SYBR Green Assay IC50) [3] [µg/mL]
1 | OCCN1CCCN(c2nc(-c3ccc(Cl)c(Cl)c3)nc(C(Cl)(Cl)Cl)n2)CC1 [Cmpd 454] | 0.252 | 0.118 | 0.064
2 | OCCN1CCCN(c2nc(-c3ccc(Cl)cc3)nc(C(Cl)(Cl)Cl)n2)CC1 [Cmpd 455] | 0.214 | 0.118 | 0.065
3 | OCCN1CCCN(c2nc(-c3cccc(C(F)(F)F)c3)nc(C(Cl)(Cl)Cl)n2)CC1 [Cmpd 456] | 0.207 | 0.136 | 0.091
4 | CSc1ccc(-c2nc(N3CCCN(CCO)CC3)nc(C(Cl)(Cl)Cl)n2)cc1 [Cmpd 457] | 0.328 | 0.168 | 0.08
5 | OCCN1CCCN(c2nc(-c3ccccc3)nc(C(Cl)(Cl)Cl)n2)CC1 [Cmpd 458] | 0.172 | 0.116 | 0.044
6 | OCCN1CCCN(c2nc(-c3ccc4ccccc4c3)nc(C(Cl)(Cl)Cl)n2)CC1 [Cmpd 459] | 0.163 | 0.153 | 0.108
7 | COc1ccc(-c2nc(N3CCCN(CCO)CC3)nc(C(Cl)(Cl)Cl)n2)c2ccccc12 [Cmpd 463] | 0.355 | 0.306 | 0.201
8 | Clc1cccc(-c2nc(NCCc3cnccn3)nc(C(Cl)(Cl)Cl)n2)c1 [Cmpd 472] | 0.449 | 0.244 | 0.051
9 | CN(CCc1ccccn1)c1nc(-c2cc(Cl)cc(Cl)c2)nc(C(Cl)(Cl)Cl)n1 [Cmpd 474] | 0.065 | 0.527 | 0.208
10 | COc1cc(OC)cc(-c2nc(NCCN3CCCC3)nc(C(Cl)(Cl)Cl)n2)c1 [Cmpd 476] | 0.057 | 0.035 | 0.023
11 | COc1cc(OC)cc(-c2nc(NCCCN3CCCC3)nc(C(Cl)(Cl)Cl)n2)c1 [Cmpd 477] | 0.077 | 0.041 | 0.023
12 | COc1cc(OC)cc(-c2nc(NCCC3CCCN3C)nc(C(Cl)(Cl)Cl)n2)c1 (stereo not drawn) [Cmpd 478] | 0.042 | 0.022 | 0.014
13 | CCN(CC)CCNc1nc(-c2cc(OC)cc(OC)c2)nc(C(Cl)(Cl)Cl)n1 [Cmpd 479] | 0.038 | 0.017 | 0.012
14 | COc1cc(OC)cc(-c2nc(NCC(C)(C)N)nc(C(Cl)(Cl)Cl)n2)c1 [Cmpd 481] | 0.035 | 0.017 | 0.012
15 | COc1cccc(-c2nc(NCC3CCN(C(C)C)CC3)nc(C(Cl)(Cl)Cl)n2)c1 [Cmpd 485] | 0.094 | 0.045 | 0.024
16 | CC(C)N1CCC(CNc2nc(-c3ccc(Cl)cc3)nc(C(Cl)(Cl)Cl)n2)CC1 [Cmpd 487] | 0.064 | 0.033 | 0.019
17 | CC(C)N1CCC(CNc2nc(-c3ccc(C(C)(C)C)cc3)nc(C(Cl)(Cl)Cl)n2)CC1 [Cmpd 488] | 0.027 | 0.02 | 0.016
18 | CC(C)N1CCC(CNc2nc(-c3cccc(C(F)(F)F)c3)nc(C(Cl)(Cl)Cl)n2)CC1 [Cmpd 489] | 0.014 | 0.01 | 0.008
19 | CSc1ccc(-c2nc(NCC3CCN(C(C)C)CC3)nc(C(Cl)(Cl)Cl)n2)cc1 [Cmpd 490] | 0.091 | 0.067 | 0.049
20 | CC(C)N1CCC(CNc2nc(-c3ccc(S(C)(=O)=O)cc3)nc(C(Cl)(Cl)Cl)n2)CC1 [Cmpd 491] | 0.048 | 0.034 | 0.018
21 | CC(C)N1CCC(CNc2nc(-c3ccc(C(Cl)(Cl)Cl)cc3)nc(C(Cl)(Cl)Cl)n2)CC1 [Cmpd 492] | 0.095 | 0.052 | 0.033
22 | CC(C)N1CCC(CNc2nc(-c3ccc4ccccc4c3)nc(C(Cl)(Cl)Cl)n2)CC1 [Cmpd 494] | 0.038 | 0.023 | 0.018
23 | CC(C)N1CCC(CNc2nc(-c3cc(Cl)cc(Cl)c3)nc(C(Cl)(Cl)Cl)n2)CC1 [Cmpd 495] | 0.036 | 0.013 | 0.01

Row | Structure (SMILES) | D6 (SYBR Green Assay IC50) [1] [µg/mL] | C235 (SYBR Green Assay IC50) [2] [µg/mL] | W2 (SYBR Green Assay IC50) [3] [µg/mL]
24 | CC(C)N1CCC(CNc2nc(-c3ccc(-c4ccccc4)cc3)nc(C(Cl)(Cl)Cl)n2)CC1 [Cmpd 496] | 0.029 | 0.014 | 0.015
25 | CC(C)N1CCC(CNc2nc(-c3ccccc3[N+](=O)[O-])nc(C(Cl)(Cl)Cl)n2)CC1 [Cmpd 497] | 0.913 | 0.469 | 0.176
26 | COc1ccc(-c2nc(NCC3CCN(C(C)C)CC3)nc(C(Cl)(Cl)Cl)n2)c2ccccc12 [Cmpd 498] | 0.247 | 0.125 | 0.066
27 | COc1ccc(-c2nc(NCC3CCN(C(C)C)CC3)nc(C(Cl)(Cl)Cl)n2)cc1OC [Cmpd 501] | 0.362 | 0.241 | 0.094
28 | COc1cc(OC)cc(-c2nc(NCC3CCN(C(C)C)CC3)nc(C(Cl)(Cl)Cl)n2)c1 [Cmpd 502] | 0.127 | 0.052 | 0.028
29 | Cc1ccc(-c2nc(NCC3CCN(C)CC3)nc(C(Cl)(Cl)Cl)n2)cc1 [Cmpd 503] | 0.044 | 0.026 | 0.014
30 | CN1CCC(CNc2nc(-c3ccc(Cl)c(Cl)c3)nc(C(Cl)(Cl)Cl)n2)CC1 [Cmpd 505] | 0.029 | 0.02 | 0.017
31 | CN1CCC(CNc2nc(-c3ccc(C(C)(C)C)cc3)nc(C(Cl)(Cl)Cl)n2)CC1 [Cmpd 507] | 0.043 | 0.043 | 0.039
32 | CN1CCC(CNc2nc(-c3cccc(C(F)(F)F)c3)nc(C(Cl)(Cl)Cl)n2)CC1 [Cmpd 508] | 0.034 | 0.022 | 0.013
33 | CSc1ccc(-c2nc(NCC3CCN(C)CC3)nc(C(Cl)(Cl)Cl)n2)cc1 [Cmpd 509] | 0.294 | 0.167 | 0.098
34 | CN1CCC(CNc2nc(-c3ccc(S(C)(=O)=O)cc3)nc(C(Cl)(Cl)Cl)n2)CC1 [Cmpd 510] | 0.416 | 0.273 | 0.088
35 | CN1CCC(CNc2nc(-c3ccc(C(Cl)(Cl)Cl)cc3)nc(C(Cl)(Cl)Cl)n2)CC1 [Cmpd 511] | 0.077 | 0.056 | 0.034
36 | CN1CCC(CNc2nc(-c3ccccc3)nc(C(Cl)(Cl)Cl)n2)CC1 [Cmpd 512] | 0.103 | 0.057 | 0.03
37 | CN1CCC(CNc2nc(-c3cc(Cl)cc(Cl)c3)nc(C(Cl)(Cl)Cl)n2)CC1 [Cmpd 514] | 0.079 | 0.028 | 0.026
38 | CN1CCC(CNc2nc(-c3ccccc3[N+](=O)[O-])nc(C(Cl)(Cl)Cl)n2)CC1 [Cmpd 516] | 0.292 | 0.181 | 0.083
39 | COc1ccc(-c2nc(NCC3CCN(C)CC3)nc(C(Cl)(Cl)Cl)n2)c2ccccc12 [Cmpd 517] | 0.023 | 0.012 | 0.007
40 | COc1ccc(-c2nc(NCC3CCN(C)CC3)nc(C(Cl)(Cl)Cl)n2)cc1OC [Cmpd 520] | 0.082 | 0.045 | 0.019
41 | COc1cc(OC)cc(-c2nc(NCC3CCN(C)CC3)nc(C(Cl)(Cl)Cl)n2)c1 [Cmpd 521] | 0.045 | 0.023 | 0.014
42 | CN1CCCC1CCNc1nc(-c2ccccc2[N+](=O)[O-])nc(C(Cl)(Cl)Cl)n1 (stereo not drawn) [Cmpd 524] | 0.108 | 0.07 | 0.028
43 | COc1cc(OC)cc(-c2nc(N3CCCNCC3)nc(C(Cl)(Cl)Cl)n2)c1 [Cmpd 525] | 0.043 | 0.041 | 0.033
44 | COc1cc(OC)cc(-c2nc(NC3CC(C)(C)NC(C)(C)C3)nc(C(Cl)(Cl)Cl)n2)c1 [Cmpd 527] | 0.026 | 0.024 | 0.021
45 | CCN1CCCC(Nc2nc(-c3cc(OC)cc(OC)c3)nc(C(Cl)(Cl)Cl)n2)C1 (stereo not drawn) [Cmpd 528] | 0.035 | 0.033 | 0.023
46 | COc1cc(OC)cc(-c2nc(NCC3(N)CCOCC3)nc(C(Cl)(Cl)Cl)n2)c1 [Cmpd 529] | 0.059 | 0.055 | 0.055
